The text below walks through data of patent US5506221A, “Contignasterol, and related 3-alpha hydroxy-6-alpha hydroxy-7-beta hydroxy-15-keto-14-beta steroids useful as anti-inflammatory and anti-thrombosis agents” (University of British Columbia, priority 1994, dated 1996).

Entries after “also recorded” stand apart in the source; their conditions may differ.

The subject of test [1] is allergeninduced challenge. Briefly: relative potencies of isomers of contignasterol against allergen-induced challenge. Conditions: for % Inhibition: allergen-induced challenge; for inhibition: concentration not given. The text has this: Table 4 illustrates the relative potencies of different isomers of contignasterol against allergeninduced challenge.
A further test deals with rat mast cells. Conditions: induced by anti-IgE; cited from earlier work.
Test [2] relates to platelets. Put plainly: platelet aggregation in response to collagen. Type of test: cell-based. The source says: (§1) PAF is a local mediator of thrombosis. Similarly, collagen exposure of vessel walls leads to the formation of […] clot in the vessels. Therefore, prevention of the formation of blood clots has direct implication in the treatment of thrombosis and associated cardiovascular diseases.
(§2) PAF and collagen were used at their maximal concentrations to which induced 100% aggregation of platelets.

For another test, the system named is tracheal tissues. Put plainly: ovalbumin (OA)-induced contraction of tracheal tissues from sensitized guinea pigs. In kind it is cell-based. The source says: We have used the contignasterol as defined in paragraph one of the Summary to block bronchoconstriction induced in guinea pigs. Guinea pigs were sensitized to ovalbumine (OA) that can serve as an antigen. The trachea from these animals after exposure to the antigen (OA) contracted in a similar manner as to in vivo situation.

The test system of another test is human basophils. Briefly: histamine release from human basophils/leukocytes challenged with anti-human IgE. In kind it is cell-based. As for the experimental part:
A major test to confirm the anti-allergic property of contignasterols is the histamine release from human basophils. […] We used […] human blood leukocytes from allergic (allergy to grass pollen) individuals and prepared leukocytes. The leukocytes were then challenged with anti-human IgE for the release of histamine. The leukocytes were either exposed to 50 μg/ml of contignasterol or saline alone (control). The amount of histamine released from the leukocytes was measured using radioenzymatic assay.

Test [3] has as its system platelets. Briefly: platelet aggregation in response to PAF. Type of test: cell-based.
Source text: as §1, §2

A word on the % Inhibition: it is the relative decrease from the control value, in per cent. Read a high % Inhibition as a strong effect. A word on the inhibition: it is the percentage by which the read-out fell short of the control. Low readings indicate a weak effect, high ones a strong effect. Consider `COC1CC(C(C)C)CC([C@@H](C)[C@H]2CC(=O)[C@@H]3[C@@H]4[C@@H](O)[C@H](O)[C@H]5[C@@H](O)[C@H](O)CC[C@]5(C)[C@H]4CC[C@]23C)O1` (stereo partly shown) [Compound 3], for which the “% Inhibition” value in test [1] (10 μM) turned out to be 12%. Moreover, the “change in potency on conversion of hemiacetal to methyl acetal, in words” value in test [1] (10 μM, methyl acetal (3) versus contignasterol (1)) was “significant decrease in the potency”. For the same molecule, the inhibition in test [1] worked out at 12%.
Turning to `CC(C)C[C@]1(O)C[C@@H](C)[C@H]2[C@@H]1C(=O)[C@@H]1[C@@H]3[C@@H](O)[C@H](O)[C@H]4C[C@H](O)[C@@H](O)[C@@H](O)[C@]4(C)[C@H]3CC[C@]21C` [xestobergsterol B, 23S-16β,23-cyclo-1β,2β,3α,6α,7β,23-hexahydroxy-5α,14β-cholestan-15-one], the “inhibition of histamine release, in words” value in the test on rat mast cells is recorded as “potent inhibitors of histamine release”.
Take `CC(C)C[C@]1(O)C[C@@H](C)[C@H]2[C@@H]1C(=O)[C@@H]1[C@@H]3[C@@H](O)[C@H](O)[C@H]4C[C@H](O)CC[C@]4(C)[C@H]3CC[C@]21C` [xestobergsterol A, 23S-16β, 23-cyclo-3α,6α,7β,23-tetrahydroxy-5α,14β-cholestan-15-one]: in the test on rat mast cells, the “inhibition of histamine release, in words” value is “potent inhibitors of histamine release”.
`CC(C)C1CC(O)OC([C@@H](C)[C@H]2CC(=O)[C@@H]3[C@@H]4[C@@H](O)[C@H](O)[C@H]5[C@@H](O)[C@H](O)CC[C@]5(C)[C@H]4CC[C@]23C)C1` (stereo partly shown) [Compound 1, contignasterol]: the activity at 5 µg/mL turned out to be 70% in the test with platelets [2] (Platelet, contignasterol 5 μg/ml, collagen at maximal concentration, read-out: Aggregation (% of Control), Collagen) and 90% in the test on platelets [3] (Platelet, contignasterol 5 μg/ml, PAF at maximal concentration, read-out: Aggregation (% of Control), PAF). Further, the activity at 30 µg/mL in the test with platelets [2] (Platelet, contignasterol 30 μg/ml, collagen at maximal concentration, read-out: Aggregation (% of Control), Collagen) amounted to 0%; in the test with platelets [3] (Platelet, contignasterol 30 μg/ml, PAF at maximal concentration, read-out: Aggregation (% of Control), PAF) it was 28%. For the same molecule, the activity at 50 µg/mL in the test with platelets [2] (Platelet, contignasterol 50 μg/ml, collagen at maximal concentration, read-out: Aggregation (% of Control), Collagen) is 0%; in the test with platelets [3] (Platelet, contignasterol 50 μg/ml, PAF at maximal concentration, read-out: Aggregation (% of Control), PAF) it was 0%. For the same molecule, in the test with platelets [2] (collagen), the “inhibition of platelet aggregation caused by collagen, in words” value is “inhibited aggregation of platelets; also recorded: inhibits platelet aggregation”. Moreover, the “Contraction (% of Maximal)” value was 0.00 % of Maximal with tracheal tissues (contignasterol 1 μg/ml, ovalbumine 0.001 μg/ml, control 6.6); -7.7 % of Maximal in the test with tracheal tissues (contignasterol 1 μg/ml, ovalbumine 0.01 μg/ml, control 12); -8.5 % of Maximal in the test with tracheal tissues (contignasterol 1 μg/ml, ovalbumine 0.1 μg/ml, control 28.6); 27.5 % of Maximal with tracheal tissues (contignasterol 1 μg/ml, ovalbumine 1 μg/ml, control 34.0); 30 % of Maximal with tracheal tissues (contignasterol 1 μg/ml, ovalbumine 10 μg/ml, control 46.0); 39 % of Maximal in the test on tracheal tissues (contignasterol 1 μg/ml, ovalbumine 100 μg/ml, control 55.7). Further, the “Contraction (% of Maximal)” value is listed as 39.7 % of Maximal in the test on tracheal tissues (contignasterol 1 μg/ml, ovalbumine 300 μg/ml, control 56); 0.00 % of Maximal in the test with tracheal tissues (contignasterol 10 μg/ml, ovalbumine 0.001 μg/ml, control 6.6); -8.0 % of Maximal with tracheal tissues (contignasterol 10 μg/ml, ovalbumine 0.01 μg/ml, control 12); -8.0 % of Maximal with tracheal tissues (contignasterol 10 μg/ml, ovalbumine 0.1 μg/ml, control 28.6); 6.0 % of Maximal in the test on tracheal tissues (contignasterol 10 μg/ml, ovalbumine 1 μg/ml, control 34.0); 16.0 % of Maximal with tracheal tissues (contignasterol 10 μg/ml, ovalbumine 10 μg/ml, control 46.0). Moreover, the “Contraction (% of Maximal)” value with tracheal tissues (contignasterol 10 μg/ml, ovalbumine 100 μg/ml, control 55.7) is given as 16.6 % of Maximal; with tracheal tissues (contignasterol 10 μg/ml, ovalbumine 300 μg/ml, control 56), 29.6 % of Maximal; with tracheal tissues (contignasterol 50 μg/ml, ovalbumine 0.001 μg/ml, control 6.6) it was 0.00 % of Maximal; with tracheal tissues (contignasterol 50 μg/ml, ovalbumine 0.01 μg/ml, control 12) it was 0.0 % of Maximal; in the test on tracheal tissues (contignasterol 50 μg/ml, ovalbumine 0.1 μg/ml, control 28.6), 0.0 % of Maximal; in the test with tracheal tissues (contignasterol 50 μg/ml, ovalbumine 1 μg/ml, control 34.0) it was 5.5 % of Maximal. Also, the “Contraction (% of Maximal)” value is on record as 11.1 % of Maximal with tracheal tissues (contignasterol 50 μg/ml, ovalbumine 10 μg/ml, control 46.0); 16.6 % of Maximal with tracheal tissues (contignasterol 50 μg/ml, ovalbumine 100 μg/ml, control 55.7); 22 % of Maximal in the test on tracheal tissues (contignasterol 50 μg/ml, ovalbumine 300 μg/ml, control 56). For the same molecule, the “effect on antigen-induced tracheal/airway smooth muscle contraction, in words” value in the test with tracheal tissues (tissue pretreated, exposed to antigen (OA)) was “did not significantly contract; also recorded: inhibited airway smooth muscle contraction”. In the test on human basophils (basophils present in the blood), the “inhibition of histamine release from human basophils, in words” value is recorded as “inhibits histamine release”. The “Histamine Release (% of Total)” value in the test on human basophils (contignasterol 50 μg/ml, challenge with anti-IgE, control (no drug) 36.4, basal release 9.8) is reported as 19.0 % of Total. Further, the “% Inhibition” value in test [1] (10 μM) turned out to be 43%. This molecule returned an inhibition in test [1] of 47%. In the test on platelets [3] (PAF), the “inhibition of platelet aggregation caused by PAF, in words” value is “inhibited aggregation of platelets; also recorded: inhibits platelet aggregation”. In addition, the activity at 10 µg/mL with platelets [3] (Platelet, contignasterol 10 μg/ml, PAF at maximal concentration, read-out: Aggregation (% of Control), PAF) was found to be 56%. The activity at 20 µg/mL in the test with platelets [3] (Platelet, contignasterol 20 μg/ml, PAF at maximal concentration, read-out: Aggregation (% of Control), PAF) is 44%.
As to `CC(C)C1CC(O)OC([C@@H](C)[C@H]2CC(=O)[C@H]3[C@@H]4[C@@H](O)[C@H](O)[C@H]5[C@@H](O)[C@H](O)CC[C@]5(C)[C@H]4CC[C@]23C)C1` (stereo partly shown) [Compound 2, 14-epicontignasterol], the “% Inhibition” value in test [1] (10 μM) amounted to 25%. The molecule further gave an inhibition in test [1] of 25%.
